Legend:
MII egg = conditions: previously reported; cited from earlier work
[1] = previously reported value; read-out: zinc dissociation constant (reported); cited from earlier work
[2] = Photophysical properties in solvents of varied dielectric constants (water/acetonitrile); type: physicochemical
Experimental: (§1) Aqueous solutions were prepared by using de-ionized water with resistivity […], obtained using a Milli-Q water purification system. In order to properly compare the photophysical properties of ZincBY-2, ZincBY-3, and ZincBY-4 to ZincBY-1, the photophysical properties of ZincBY-1 we remeasured. […] Stock solutions of ZincBY-1, ZincBY-2, ZincBY-3, and ZincBY-4 were prepared at concentrations of 5 mM and stored at −20° C. in aliquots that were used immediately after thawing for each experiment. Unless otherwise stated, all spectroscopic methods were conducted in aqueous buffer containing 50 mM HEPES (pH 7.2) and 0.1 M KNO3. UV-visible spectra were acquired on a PerkinElmer Lambda 650 UV/Vis spectrophotometer using quartz cuvettes from Starna (1 cm path length, 10 cm path length used in extinction coefficient and quantum yield determination). Fluorescence spectra were acquired using a PerkinElmer LS 55 fluorescence spectrophotometer. For measurements containing zinc, 99.0% ZnNO3 hexahydrate (final concentration 5 μM) was used. For experiments analyzing apo probes, N,N,N′,N′-Tetrakis(2-pyridylmethyl)ethylenediamine (TPEN) (final concentration 5 μM) was added to solution. Quantum Yield and Extinction Coefficient Determination. Quantum yields for apo and holo ZincBY-1, ZincBY-2, ZincBY-3, and ZincBY-4 were determined by plotting absorbance vs. fluorescence intensity of solutions containing ZincBY-1, ZincBY-2, ZincBY-3, or ZincBY-4 at probe concentrations ranging from 50-250 nM. […] Fluorescein dissolved in 0.1 N NaOH was used as the quantum yield standard, using a literature-determined quantum yield of 0.95.^3 For all fluorophore solutions, fluorescence excitation was set at 490 nm and fluorescence emission was integrated from 510 nm to 650 nm. […] Fluorescence spectra were recorded using zinc probes (ZincBY-1, ZincBY-2, ZincBY-3, or ZincBY-4; 200 nM) and ZnSO4 (various concentrations). […] Free Zn^2+ was calculated according to a previously reported method (Ref. B4; incorporated by reference in its entirety). […] The fluorescence spectra of zinc probes (ZincBY-2, ZincBY-3, or ZincBY-4; 200 nM) wasere measured at various pH values (4.5-11). […] The fluorescence spectra of zinc probes (ZincBY-2, ZincBY-3, or ZincBY-4; 200 nM) were measured in the presence an excess of metal ion including 1 mM KNO3, 1 mM NaNO3, 1 mM CaSO4, 1 mM MgSO4, 15 μM MnSO4, 15 μM (NH4)2Fe(SO4)2, 15 μM NH4Fe(SO4)2, 15 μM CoSO4, 15 μM NiSO4, 15 μM CuSO4, 15 μM [Cu(CH3CN)4]PF6, 15 μM CdSO4, 15 μM Hg(NO3)2, 15 μM Pb(NO3)2, or 15 μM ZnSO4. The fluorescence spectra were compared to that of ZincBY-2 (200 nM), ZincBY-3 (200 nM), or ZincBY-4 (200 nM) in the presence of 10 μM TPEN. […] A log P value for each probe was determined by agitating nanomolar solutions of each probe in a 1:1 mixture of HEPES buffer and 1-octanol. […]

[3] = Stability of ZincBY-4 over 12 h by fluorescence intensity; type: physicochemical; conditions: for retention of fluorescence intensity after 12 hours: 10 mM glutathione (GSH); for fluorescence intensity after 12 hours: absence of GSH
Experimental: as §1

Structure (SMILES) | working concentrations lower than those employed with other probes (MII egg) | Kd [1] | emission maximum wavelength as the dielectric constant decreases ([2]; apo) | fluorescence intensity as the dielectric constant changes ([2]; apo) | emission maximum wavelength as the dielectric constant decreases ([2]; holo) | fluorescence intensity as the dielectric constant changes ([2]; holo) | retention of fluorescence intensity after 12 hours ([3]; apo) | fluorescence intensity after 12 hours ([3]; apo) | retention of fluorescence intensity after 12 hours ([3]; holo) | fluorescence intensity after 12 hours ([3]; holo)
COc1ccc2n1[B-](F)(F)[N+]1=C(N(CCN(Cc3ccccn3)Cc3ccccn3)Cc3ccccn3)C=CC1=C2c1c(C)cc(C)cc1C [ZincBY-1, reference compound] | 20-200 fold | 2.6 nM |  |  |  |  |  |  |  | 
CC(=O)NCCOc1ccc2n1[B-](F)(F)[N+]1=C(N(CCN(Cc3ccccn3)Cc3ccccn3)Cc3ccccn3)C=CC1=C2c1c(C)cc(C)cc1C [ZincBY-4, N-(2-((7-((2-(bis(pyridin-2-ylmethyl)amino)ethyl)(pyridin-2-ylmethyl)amino)-5,5-difluoro-10-mesityl-5H-5λ4,6λ4-dipyrrolo[1,2-c:2′,1′-f][1,3,2]diazaborinin-3-yl)oxy)ethyl)acetamide] |  |  | does not change | does change in response to dielectric constant | 575 nm | does not change as the dielectric constant changes | 40% | 7% | 97% | 83%

— patent US11953435B2, “Zinc-responsive fluorophores” (Northwestern University, priority 2019, dated 2024)
